Article PMC9027599, “Secondary Metabolites in Basil, Bio-Insecticide, Inhibition Effect, and In Silico Molecular Docking against Proteolytic Enzymes of the Red Palm Weevil (Rhynchophorus ferrugineus)” (Plants, 2022)
Each block holds one compound with its values, some of them ahead of it.

Assays:
[1] = system: proteases from the fourth larval instars of R. ferrugineus's midgut; test: Specific protease inhibitors on midgut proteases (in vitro, Figure S2); assay type: biochemical, Rhynchophorus ferrugineus; settings: purified proteases of fourth larval instar midgut
Protocol: The activity of cysteine proteinase was determined in the fourth midgut instar larval homogenate of R. ferrugineus using the substrate Z-Phe-Arg-MNA [1]. Ten larvae were carefully removed, dissected, and rinsed repeatedly with NaCl solution (0.9% (w/v). The midgut instar was homogenized in protease assay buffer (500 µL) [5 mM DTT, 50 mM HEPS (N-2-Hydroxyethyl piperazin-N’-2-ethanesulfonic acid), pH 8.0, and 0.1 percent Triton X-100]. The reaction mixture was centrifuged for 30 min at 5000 rpm (Sigma 3k30 cooling centrifuge). The supernatant was utilized to determine the overall activity of proteolytic enzymes and the protein content. The supernatant (10 µL) was incubated for 30 min at 37 °C, and the volume was adjusted to 60 µL using assay buffer (pH 8) before adding 100 µL of substrate (0.5 mM). Prior to adding the substrate, 10 µL enzyme samples were pre-incubated with iodoacetic acid for 10 min. After 60 min at 37 °C of mixture incubation, the reaction was halted with the addition of 1.5 mL mersalyl (5 mM), 0.02 mg/mL fast garnet reactive solution, and 2% Tween 20. The reaction was centrifuged (at 5000 rpm, 6 min), then the absorbance was determined (at 520 nm). The activity of cysteine proteinase was measured using an ELISA quick plate reader at the OD520/60 min/mg of midgut protein. As a blank, a test mixture devoid of enzyme was used. […] The fourth homogenates of midgut larval were produced as reported before in the experiment for determining enzyme activity. […]
To learn more about the proteases found in homogenate preparations of R. ferrugineus fourth midgut larval instars, inhibitors from many different types of mechanisms were used. […] The absorbance of the enzymes was determined using an ELISA plate quick reader at various wavelengths. The percentage activity of the control enzyme for each inhibitor was evaluated for each enzyme. Protease activity was assayed in vivo in the R. ferrugineus fourth midgut larval instars, which were treated with 1, 10, 50, 100, 500, 1000, and 5000 mg/L of extracts or compounds, measured as described above. […]

cysteine protease [2] = test: Cysteine protease activity of midgut from larvae treated 24 h (in vivo); parameters: species or system Rhynchophorus ferrugineus; settings: midgut of fourth instar larvae treated for 24 h
Protocol: The activity of cysteine proteinase was determined in the fourth midgut instar larval homogenate of R. ferrugineus using the substrate Z-Phe-Arg-MNA [1]. […] The reaction was centrifuged (at 5000 rpm, 6 min), then the absorbance was determined (at 520 nm). The activity of cysteine proteinase was measured using an ELISA quick plate reader at the OD520/60 min/mg of midgut protein. […]
As a control, an assay combination devoid of inhibitors was utilized. The absorbance of the enzymes was determined using an ELISA plate quick reader at various wavelengths. The percentage activity of the control enzyme for each inhibitor was evaluated for each enzyme. Protease activity was assayed in vivo in the R. ferrugineus fourth midgut larval instars, which were treated with 1, 10, 50, 100, 500, 1000, and 5000 mg/L of extracts or compounds, measured as described above. […]

cysteine protease [3] = test: Cysteine proteinase activity, Z-Phe-Arg-MNA (in vitro); assay type: biochemical, Rhynchophorus ferrugineus; settings: fourth instar larvae midgut homogenate
Protocol: The activity of cysteine proteinase was determined in the fourth midgut instar larval homogenate of R. ferrugineus using the substrate Z-Phe-Arg-MNA [1]. Ten larvae were carefully removed, dissected, and rinsed repeatedly with NaCl solution (0.9% (w/v). The midgut instar was homogenized in protease assay buffer (500 µL) [5 mM DTT, 50 mM HEPS (N-2-Hydroxyethyl piperazin-N’-2-ethanesulfonic acid), pH 8.0, and 0.1 percent Triton X-100]. The reaction mixture was centrifuged for 30 min at 5000 rpm (Sigma 3k30 cooling centrifuge). The supernatant was utilized to determine the overall activity of proteolytic enzymes and the protein content. The supernatant (10 µL) was incubated for 30 min at 37 °C, and the volume was adjusted to 60 µL using assay buffer (pH 8) before adding 100 µL of substrate (0.5 mM). Prior to adding the substrate, 10 µL enzyme samples were pre-incubated with iodoacetic acid for 10 min. After 60 min at 37 °C of mixture incubation, the reaction was halted with the addition of 1.5 mL mersalyl (5 mM), 0.02 mg/mL fast garnet reactive solution, and 2% Tween 20. The reaction was centrifuged (at 5000 rpm, 6 min), then the absorbance was determined (at 520 nm). The activity of cysteine proteinase was measured using an ELISA quick plate reader at the OD520/60 min/mg of midgut protein. As a blank, a test mixture devoid of enzyme was used. […] The fourth homogenates of midgut larval were produced as reported before in the experiment for determining enzyme activity. As previously disclosed, the inhibitory experiment was performed using a microplate assay. A series of inhibitor concentrations was created to determine the inhibitor’s maximal inhibitory effect. Leupeptin concentrations of 0.01, 0.05, 0.1, and 1.0 mM, PMSF concentrations of 0.1, 1.0, 10, and 50 mM, TLCK and TPCK concentrations of 0.01, 0.05, 0.1, 1, 50, and 100 mM, EDTA concentrations of 0.1, 1, 10, 50, and 100 mM, and iodoacetic acid concentrations of 0.01, 0.05, 0.1, and 1 mM.
As a control, an assay combination devoid of inhibitors was utilized. The absorbance of the enzymes was determined using an ELISA plate quick reader at various wavelengths. The percentage activity of the control enzyme for each inhibitor was evaluated for each enzyme. Protease activity was assayed in vivo in the R. ferrugineus fourth midgut larval instars, which were treated with 1, 10, 50, 100, 500, 1000, and 5000 mg/L of extracts or compounds, measured as described above. Larvae were exposed for 24 h to leaf discs treated with extract and compounds.

total proteases [4] = test: Total proteolytic activity of fourth instar midgut homogenate, azocasein (in vitro); assay type: biochemical, Rhynchophorus ferrugineus; settings: fourth instar larvae midgut homogenate
Protocol: (§1) The Lowry technique was used to determine the protein concentrations. Total proteolytic activity was determined in the fourth midgut instar larval (lab strain) homogenate of R. ferrugineus with azocasein in accordance with […] et al. […] [70]. […] Using a Sigma 3k30 cooling centrifuge, reserve homogenates prepared in a previous stage were spun at 5000 rpm for 30 min. Estimates of protein content and total proteolytic enzyme activity were made using the supernatants. The supernatant (10 μL) was incubated at 37 °C for 20 min, and the volume was adjusted to 60 μL using an assay buffer (pH 8), before adding azocasien (200 μL, 2% (w/v)). […] Following that, to activate the reaction, the substrate was introduced 20 min for Leupeptin, so the reaction was halted after 180 min at 37 °C with 300 μL of cool tri-chloroacetic acid (TCA) (10% (v/v). The mixture was centrifuged for 20 min at 5000 rpm (Sigma 3k30 cooling centrifuge). […] To learn more about the proteases found in homogenate preparations of R. ferrugineus fourth midgut larval instars, inhibitors from many different types of mechanisms were used. […] As a control, an assay combination devoid of inhibitors was utilized. The absorbance of the enzymes was determined using an ELISA plate quick reader at various wavelengths. The percentage activity of the control enzyme for each inhibitor was evaluated for each enzyme. […] Larvae were exposed for 24 h to leaf discs treated with extract and compounds.

[5] = system: trypsin-like serine proteinase; test: Trypsin-like activity of midgut from larvae treated 24 h (in vivo); parameters: species or system Rhynchophorus ferrugineus; settings: midgut of fourth instar larvae treated for 24 h
Protocol: (§2) The midguts were homogenized in the assay buffer (100 mM Tris-HCl, pH 8.1) and centrifuged for 30 min at 8000 rpm (Sigma 3K 30, rotors No. 12158). […] […] (100 mg/mL in DMF), BAρNA (100 mg/mL in DMSO), and […] (100 mg/mL in DMF) stock substrates were diluted in the assay buffer to 1 mg/mL, and substrate volume was 50 μL. […] The activity was quantified using an ELISA plate reader at a wavelength of 405 nm. As an empty well, an assay combination containing a denaturation enzyme was utilized instead of an active enzyme. […] To learn more about the proteases found in homogenate preparations of R. ferrugineus fourth midgut larval instars, inhibitors from many different types of mechanisms were used. […] As a control, an assay combination devoid of inhibitors was utilized. The absorbance of the enzymes was determined using an ELISA plate quick reader at various wavelengths. The percentage activity of the control enzyme for each inhibitor was evaluated for each enzyme. […] Larvae were exposed for 24 h to leaf discs treated with extract and compounds.

total proteases [6] = test: Total protease activity of midgut from larvae treated 24 h (in vivo); parameters: species or system Rhynchophorus ferrugineus; settings: midgut of fourth instar larvae treated for 24 h
Protocol: as §1

[7] = target: trypsin-like serine proteinase; test: Serine proteinase microplate assay, BApNA (in vitro); assay type: biochemical, Rhynchophorus ferrugineus; settings: fourth instar larvae midgut homogenate
Protocol: as §2, with “The specific activities of serine proteinase were determined using a rapid quick microplate assay with substrates in reaction mixtures (150 μL) including a serine protease assay buffer, according to […] et al. and Olga et al. with modifications. The midguts” for “The midguts”

metalloprotease [8] = test: Metalloproteinase activity, azocasein (in vitro); assay type: biochemical, Rhynchophorus ferrugineus; settings: fourth instar larvae midgut homogenate
Protocol: (§3) A substrate azocasein assessed the metalloproteinases activity in the fourth midgut instar larval homogenate. Ten larvae were carefully removed, dissected, and rinsed repeatedly with NaCl solution (0.9% (w/v). […] After homogenization, the homogenates were centrifuged at 5000 rpm (for 30 min) using a Sigma centrifuge 3k30, and the supernatant was utilized to determine enzyme activity and protein content. The supernatant per experiment (10 µL) was incubated for 20 min at 37 °C, and the volume was adjusted to 60 µL using assay buffer pH 8 before adding azocasein (200 µL, 2% (w/v)). In all instances, 10 µL enzyme samples were incubated for 10 min (except EDTA with 20 min), and EDTA was used as a blocker of metalloproteinase activity before being added to the specific substrate. The reaction was interrupted with 300 µL of trichloroacetic acid (TCA cold, 10% (v/v) and continued at 37 °C for 180 min. The reaction mixture was then centrifuged at 5000 rpm for 20 min (Sigma centrifuge 3k30), sodium hydroxide (10 µL of 10 N) was incorporated into the supernatant, then absorbance was determined using an ELISA plate reader at 450 nm. As a blank, an assay mixture devoid of the enzyme was devoted, the specific activity was determined using the OD450 mg^−1 protein min^−1 value, and a blank solution sample devoid of enzyme solution was determined. To learn more about the proteases found in homogenate preparations of R. ferrugineus fourth midgut larval instars, inhibitors from many different types of mechanisms were used. […] As a control, an assay combination devoid of inhibitors was utilized. The absorbance of the enzymes was determined using an ELISA plate quick reader at various wavelengths. The percentage activity of the control enzyme for each inhibitor was evaluated for each enzyme. […] Larvae were exposed for 24 h to leaf discs treated with extract and compounds.

metalloprotease [9] = test: Metalloprotease activity of midgut from larvae treated 24 h (in vivo); parameters: species or system Rhynchophorus ferrugineus; settings: midgut of fourth instar larvae treated for 24 h
Protocol: as §3

SMILES: O=C(O)CI [iodoacetic acid]
- effect of specific inhibitor on midgut proteases [1]: dramatically suppressed

SMILES: Cc1ccc(S(=O)(=O)N[C@@H](Cc2ccccc2)C(=O)CCl)cc1 [TPCK]
- effect of specific inhibitor on midgut proteases [1]: dramatically suppressed

- IC50 against cysteine protease (in vitro) (cysteine protease [3]): 58.2 µg/mL
- IC50 against trypsin-like serine proteinase (in vitro) [7]: 57.4 µg/mL
- IC50 against metalloprotease (in vitro) (metalloprotease [8]): 119.4 µg/mL
SMILES: C[C@H]1[C@H](C)CC[C@]2(C(=O)O)CC[C@]3(C)C(=CC[C@@H]4[C@@]5(C)CC[C@H](O)C(C)(C)[C@@H]5CC[C@]43C)[C@H]12 [Ursolic acid]
- IC50 against cysteine protease (in vivo) (cysteine protease [2]): 685.2 µg/mL
- IC50 against total proteases (in vitro) (total proteases [4]): 67.2 µg/mL
- IC50 against trypsin-like serine proteinase (in vivo) [5]: 235.1 µg/mL
- IC50 against total proteases (in vivo) (total proteases [6]): 279.5 µg/mL
- IC50 against metalloprotease (in vivo) (metalloprotease [9]): 548.3 µg/mL

SMILES: Cc1ccc(S(=O)(=O)N[C@@H](CCCCN)C(=O)CCl)cc1 [TLCK]
- effect of specific inhibitor on midgut proteases [1]: dramatically suppressed
